# Assay results as given in patent US20240208905A1, “ABIRATERONE DERIVATIVE, PREPARATION AND APPLICATION THEREOF” (GUANGDONG ZHONGKE MEDICINE R&D LTD., priority 2021, published 2024).
# Where two headings read alike, the source gives them in different places.
# Assays:
# [1] = test system: experimental rabbit ear acne; experiment: Pharmacodynamics evaluation of acne: coal tar rabbit ear acne model, HE pathology; format: in vivo, Japanese big-ear white rabbits; conditions: 0.01% ointment, 1 g per animal, once a day, two weeks, 10 rabbits per group; for Degree of keratinization: number of rabbits graded + / Degree of keratinization: number of rabbits graded ++ / Degree of keratinization: number of rabbits graded +++ / Degree of keratinization: number of rabbits graded −: hair follicle keratinization
# From the text: There are 140 male healthy Japanese big-ear white rabbits, weighing 2.0-2.5 kg. After one week of adaptive rearing, 10 rabbits were randomly selected according to their body weights as the normal control group, and the remaining 130 rabbits were coated with coal tar once a day in the area of 2×2 cm2 at 2 cm outside the opening of ear canal, with a thickness of about 0.5 mm (Before coating, the coal tar was heated to melt in a water bath, and the last coal tar shell was removed before each application; the rabbits in normal control group were coated with olive oil by the same method as before). After 3 weeks for modeling, according to the degree of skin lesion, 130 rabbits were randomly divided into 13 groups which is model control group, Example 1 compound (1 group), Example 2 compound (2 groups), Example 3 compound (3 groups), Example 4 (4 groups), Example 5 (5 groups), Example 6 (6 groups), Example 7 (7 groups), Example 8 (8 groups), Example 9 (9 groups), Example 10 (10 groups), Example 11 (11 groups), Example 12 (12 groups), Example 13 (13 groups), and each group had 10 rabbits. After grouping, each dose group were continued to be coated coal tar in the morning, and after the coal tar was removed in the afternoon, apply the test drug or control drug (both 0.01%/10 g ointment, apply 1 g ointment per animal) on the lesion, once a day, for two consecutive weeks (the model control group and the normal control group were coated with the same amount of matrix). 24 hours after the last administration, the animals were sacrificed by air embolism, and the skin (full thickness) of the ear where the administration was administered was taken, fixed with 4% paraformaldehyde solution, stained with HE, and routinely observed for pathology.1.
# [2] = test system: human prostate cancer cell VCaP nude mouse transplanted tumor model; experiment: Prostate tumor pharmacodynamics experiment: VCaP nude mouse transplanted tumor model; format: in vivo, BALB/c nude mice; conditions: for inhibition in vivo at 500 µmol/kg: Mus musculus, VCaP, po, 600 h, read-out: Growth Inhibition rate (GI); for Tumor volume, day 25: n=6, * P<0.05, ** P<0.01 vs solvent control
# Procedure: Male BALB/c nude mice (number: 90; age: 6-7 weeks) purchased from Beijing Vital River Laboratory Animal Technology Co., Ltd., were raised in the SPF animal room of Suzhou Shengsu New Drug Development Co., Ltd. at a temperature of 20˜25° C. and a relative humidity 40%˜70%, and bright and dark illumination for 12 hours respectively; these mice were allowed to drink and eat freely. After normal feeding for about 6 days, mice with good physical signs can be selected for this experiment after veterinary inspection. Before grouping, animals were identified at their base of tail using marking pens. After grouping, each animal was identified by ear clipping.
# Human prostate cancer cells VCaP were obtained from the Shanghai Cell Bank of the Chinese Academy of Sciences (CAS, cryopreserved in liquid nitrogen in our laboratory).
# Under a culture condition of 5% CO2 and 37° C., VCaP cells were routinely cultured in DMEM medium containing 10% fetal bovine serum. Digested with 0.25% trypsin and passaged, VCaP cells were passaged 2-3 times per week based on cell growth, with a passage ratio of 1:3 to 1:5.
# The VCaP cells in logarithmic growth phase were collected, counted, and resuspended in 50% DMEM basal medium and 50% Matrigel Matrix, and the cell concentration was adjust to 5×10^7 cells/mL; the cells was placed in an ice box; Cell suspension was aspirated with a 1 ml syringe, and injected subcutaneously to the anterior right armpit of nude mice. Each animal was inoculated with 200 μL (1×10^7 cells/mouse), and a VCaP transplant tumor model in nude mice was established. Regularly observe the status of mice, measure the diameter of the tumor with an electronic vernier caliper, input the data into Excel spreadsheets, calculate the tumor volume, and monitor its growth. When the tumor volume reached 100-300 mm3, 60 mice with good health and similar tumor volume were selected, and divided into 10 groups (n=6) based on the tumor volume using random block method, while ensuring that the average body weight of each group remained consistent as much as possible. The day of grouping was taken as the first day of the experiment (D1). The tumor diameters were measured twice a week after the initiation of the experiment, the tumor volumes were calculated, and the body weights of the animals were weighed and recorded at the same time.
# Preparation of DMSO&PEG400&PG (v:v:v, 10:60:30): appropriate volumes of DMSO, PEG400 and PG were drawed respectively, and mixed well. The ratio of DMSO, PEG400 and PG in the mixture is 10:60:30 (v:v:v), and this mixture is used as a blank solvent and stored at room temperature.
# Appropriate amount of the test compound was weighed and added into a glass bottle, appropriate volume of solvent DMSO was added, be treated with vortex ultrasonication, then appropriate volumes of PEG400 and PG were added in turn, be vortex mixed to obtain a dosing formulation with a final concentration of 0.05M. The dosing formulation was stored in refrigerator at 2-8° C. after subpackaging, and was stirred evenly with vortex before each administration. The dosing formulation was prepared every 7 days, and was subpackaged and stored in refrigerator at 4° C.
# Appropriate amount of ZONK1901-10 was weighed and added into a glass bottle, appropriate volume of corn oil, was added, be treated with vortex ultrasonication evenly, a dosing formulation with a final concentration of 19.58 mg·mL-1 (0.05 M) was obtained.
# [3] = day 25, 0.5 mmol·kg−1 i.g. QD, vs solvent control
Compound,degree of inflammatory cell infiltration: number of rabbits graded + [1],degree of inflammatory cell infiltration: number of rabbits graded ++ [1],degree of inflammatory cell infiltration: number of rabbits graded +++ [1],degree of inflammatory cell infiltration: number of rabbits graded − [1],Degree of keratinization: number of rabbits graded + [1],Degree of keratinization: number of rabbits graded ++ [1],Degree of keratinization: number of rabbits graded +++ [1],Degree of keratinization: number of rabbits graded − [1],"inhibition in vivo at 500 µmol/kg [2, 3] [%]",inhibition in vivo at 500 µmol/kg [2] [%],"Tumor volume, day 25 ([2]; day 25, 0.5 mmol·kg−1 i.g. QD)"
C[C@]12CCC(=NOC(=O)OCCN3CCOCC3)C=C1CC[C@H]1[C@@H]2CC[C@]2(C)C(c3cccnc3)=CC[C@@H]12 [Example 9],5,4,1,0,6,4,0,0,–,–,–
CC(=O)ON=C1C=C2CC[C@H]3[C@H](CC[C@]4(C)C(c5cccnc5)=CC[C@@H]34)[C@@]2(C)CC1 [H],–,–,–,–,–,–,–,–,69.3,–,–
"C[C@]12CCC(=NOC(=O)N(CCCl)CCCl)C=C1CC[C@H]1[C@@H]2CC[C@]2(C)C(c3cccnc3)=CC[C@@H]12 [Example 3, (8S,9S,10R,13S,14S)-10,13-Dimethyl-17-(pyridin-3-yl) -6,7,8,9,10,11,12,13,14,15-decahydro-1H-cyclopenta[a]phenanthrenyl-3(2H)-one O-(bis(2-chloroethyl)carbamoyl)oxime]",5,4,1,0,6,4,0,0,–,71.2,478 ± 64 ** mm3
"C[C@]12CCC(=NOC(=O)C3CCNCC3)C=C1CC[C@H]1[C@@H]2CC[C@]2(C)C(c3cccnc3)=CC[C@@H]12 [Example 10, (8S,9S,10R,13S,14S)-10,13-Dimethyl-17-(pyridin-3-yl) -6,7,8,9,10,11,12,13,14,15-decahydro-1H-cyclopenta[a]phenanthrenyl-3(2H)-one O-piperidine-4-carbonyl oxime]",5,3,2,0,6,3,0,1,–,–,–
"CC(=O)ON=C1C=C2CC[C@H]3[C@H](CC[C@]4(C)C(c5cccnc5)=CC[C@@H]34)[C@@]2(C)CC1 [Example 7, (8S,9S,10R,13S,14S)-10,13-Dimethyl-17-(pyridin-3-yl) -6,7,8,9,10,11,12,13,14,15-decahydro-1H-cyclopenta[a]phenanthrenyl-3(2H)-one O-acetyloxime]",5,3,2,0,6,4,0,0,–,–,–
"CN1CCC(C(=O)ON=C2C=C3CC[C@H]4[C@H](CC[C@]5(C)C(c6cccnc6)=CC[C@@H]45)[C@@]3(C)CC2)CC1 [Example 11, (8S,9S,10R,13S,14S)-10,13-Dimethyl-17-(pyridin-3-yl) -6,7,8,9,10,11,12,13,14,15-decahydro-1H-cyclopenta[a]phenanthrenyl-3(2H)-one O-(1-methylpiperidine-4-carbonyl)oxime]",6,3,1,0,7,3,0,0,–,–,–
"CN(C)CCN1CCC(C(=O)ON=C2C=C3CC[C@H]4[C@H](CC[C@]5(C)C(c6cccnc6)=CC[C@@H]45)[C@@]3(C)CC2)CC1 [Example 13, (8S,9S,10R,13S,14S)-10,13-Dimethyl-17-(pyridin-3-yl) -6,7,8,9,10,11,12,13,14,15-decahydro-1H-cyclopenta[a]phenanthrenyl-3(2H)-one O-(1-(2-(dimethylamino)ethyl)piperidine-4-carbonyl)oxime]",6,3,1,0,4,6,0,0,–,–,–
"CCC(=O)O/N=C1/C=C2CC[C@H]3[C@H](CC[C@]4(C)C(c5cccnc5)=CC[C@@H]34)[C@@]2(C)CC1 [ZONK1901-19, reference compound]",–,–,–,–,–,–,–,–,38.7,–,790 ± 49 * mm3
"CC(=O)N1CCC(C(=O)ON=C2C=C3CC[C@H]4[C@H](CC[C@]5(C)C(c6cccnc6)=CC[C@@H]45)[C@@]3(C)CC2)CC1 [Example 12, 1-(4-(((((8S,9S,10R,13S,14S)-10,13-dimethyl-17-(pyridin-3-yl) -7,8,9,11,12,13,14,15-octahydro-1H-cyclopenteno[a]phenanthrenyl-3(2H,6H, 10H) -ylidene)amino)oxy)carbonyl)piperidin-1-yl)ethanone]",5,4,1,0,5,5,0,0,–,–,–
"CC(C)C(=O)OCOC(=O)ON=C1C=C2CC[C@H]3[C@H](CC[C@]4(C)C(c5cccnc5)=CC[C@@H]34)[C@@]2(C)CC1 [Example 8, ((((((8S,9S,10R,13S,14S)-10,13-dimethyl-17-(pyridin-3-yl) -7,8,9,11,12,13,14,15-octahydro-1H-cyclopenta[a]phenanthrenyl-3(2H,6H,10H) -ylidene)amino)oxy)carbonyl)oxy)methyl isobutyrate]",4,4,2,0,5,5,0,0,–,–,–
